From ChEMBL document CHEMBL1128127, “The design of potent and stable benzisothiazolone inhibitors of human leukocyte elastase” (Bioorg Med Chem Lett, 1995)

Columns and labels:
[1] = Half-life was determined; 88% of parent remained after incubation for 120 min (human blood stability); type: ADME, tissue-based
Neutrophil elastase = target: T1, Neutrophil elastase (Homo sapiens, UniProt P08246)
T1 sequence (P08246 whole entry): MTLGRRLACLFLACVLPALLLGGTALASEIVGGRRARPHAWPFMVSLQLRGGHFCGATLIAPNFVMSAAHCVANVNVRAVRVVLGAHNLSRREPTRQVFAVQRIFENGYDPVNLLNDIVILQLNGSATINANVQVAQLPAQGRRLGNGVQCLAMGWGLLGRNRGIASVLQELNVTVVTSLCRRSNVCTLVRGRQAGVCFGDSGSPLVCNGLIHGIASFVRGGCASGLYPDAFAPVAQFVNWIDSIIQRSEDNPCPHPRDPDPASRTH
Description: Ratio of Koff to that of Kon was determined on human leukocyte elastase(HLE)

[2] = target: T2, Neutrophil elastase (Homo sapiens) (UniProt P08246)
T2 sequence (whole entry): T1 sequence (P08246 whole entry)
Description: (§1) Evaluated for inhibitory activity against Human leukocyte elastase (HLE)

[3] = target: T2, Neutrophil elastase (Homo sapiens); remark: listed apart in the source
Description: as §1

in vitro = details: human, blood
Description: Half-life (human blood stability)

Row | half-life [1] | Ki (Neutrophil elastase) | k off [2] | k on [3] | half-life (in vitro) | SMILES
1 | > 120 min | > 2000 nM | – | – | – | CC(C)(C)c1cccc2c1C(=O)N(CSc1nnnn1-c1ccccc1)S2(=O)=O
2 | – | – | – | – | 55 min | CCCc1cccc2c1C(=O)N(CSc1nnnn1-c1ccccc1)S2(=O)=O
3 | – | – | – | – | 54 min | CCc1cccc2c1C(=O)N(CSc1nnnn1-c1ccccc1)S2(=O)=O
4 | – | – | – | – | < 5 min | O=C1c2ccccc2S(=O)(=O)N1CSc1nnnn1-c1ccccc1
5 | – | – | – | – | 58 min | CCC(C)c1cccc2c1C(=O)N(CSc1nnnn1-c1ccccc1)S2(=O)=O (stereo unspecified)
6 | – | – | – | – | 45 min | CC(C)c1cccc2c1C(=O)N(CSc1nnnn1-c1ccccc1)S2(=O)=O

More lines, now with the values behind:

Row | SMILES | half-life [1] | Ki (Neutrophil elastase) | k off [2] | k on [3] | half-life (in vitro)
7 | CC(C)c1cccc2c1C(=O)N(COC(=O)c1c(Cl)cccc1Cl)S2(=O)=O | – | – | 2.7e-05 s⁻¹ | 900000 M⁻¹ s⁻¹ | 30 min
8 | COc1cc(C(C)C)c2c(c1)S(=O)(=O)N(COC(=O)c1c(Cl)cccc1Cl)C2=O | – | – | – | – | 140 min
9 | CC(C)c1cc(F)cc2c1C(=O)N(COC(=O)c1c(Cl)cccc1Cl)S2(=O)=O | – | 0.03 nM | 3e-05 s⁻¹ | 1e+06 M⁻¹ s⁻¹ | < 15 min
10 | CC(C)c1cc(N2CCN(C)CC2)cc2c1C(=O)N(COC(=O)c1c(Cl)cccc1Cl)S2(=O)=O | – | 1.1 nM | 2.4e-05 s⁻¹ | 21500 M⁻¹ s⁻¹ | 110 min
11 | CC(C)c1cc(N(C)C)cc2c1C(=O)N(COC(=O)c1c(Cl)cccc1Cl)S2(=O)=O | – | 2.2 nM | 2.7e-05 s⁻¹ | 12300 M⁻¹ s⁻¹ | –
12 | COc1cc2c(c(C(C)C)c1OC)C(=O)N(CSc1nnnn1-c1ccccc1)S2(=O)=O | – | 5.2 nM | 6.1e-05 s⁻¹ | 11800 M⁻¹ s⁻¹ | 65 min
13 | CCCc1c(OC)c(OC)cc2c1C(=O)N(CSc1nnnn1-c1ccccc1)S2(=O)=O | – | 0.2 nM | 4.7e-05 s⁻¹ | 240000 M⁻¹ s⁻¹ | 37 min
14 | CCC(CC)c1cccc2c1C(=O)N(CSc1nnnn1-c1ccccc1)S2(=O)=O | – | – | – | – | 100 min
